Reference: ChEMBL document CHEMBL5465560, “Selectivity Literature for EUbOPEN Chemogenomic Library” (2024)
Values belong to the compound of their own block, whether it stands above or below them.

Legend:
[1] = biological target: Calcium/calmodulin-dependent protein kinase kinase 1 (Homo sapiens) (UniProt Q8N5S9); assay: Selectivity interaction (KinomeScan (DiscoverX)) EUB0001049a CAMKK1; conditions: at 1 µM
[2] = biological target: Cyclin-dependent kinase 2 (Homo sapiens, UniProt P24941); assay: Selectivity interaction (ActivX KiNativ screen (kinase selectivity in THP-1 cell lysates)) EUB0000639a CDK2; format: subcellular; conditions: lysate
[3] = biological target: T1, Mitogen-activated protein kinase kinase kinase 7 (Homo sapiens) (UniProt O43318); assay: Selectivity interaction (ActivX KiNativ screen (kinase selectivity in THP-1 cell lysates)) EUB0000639a MAP3K7; format: subcellular; conditions: lysate
T1 sequence (whole entry): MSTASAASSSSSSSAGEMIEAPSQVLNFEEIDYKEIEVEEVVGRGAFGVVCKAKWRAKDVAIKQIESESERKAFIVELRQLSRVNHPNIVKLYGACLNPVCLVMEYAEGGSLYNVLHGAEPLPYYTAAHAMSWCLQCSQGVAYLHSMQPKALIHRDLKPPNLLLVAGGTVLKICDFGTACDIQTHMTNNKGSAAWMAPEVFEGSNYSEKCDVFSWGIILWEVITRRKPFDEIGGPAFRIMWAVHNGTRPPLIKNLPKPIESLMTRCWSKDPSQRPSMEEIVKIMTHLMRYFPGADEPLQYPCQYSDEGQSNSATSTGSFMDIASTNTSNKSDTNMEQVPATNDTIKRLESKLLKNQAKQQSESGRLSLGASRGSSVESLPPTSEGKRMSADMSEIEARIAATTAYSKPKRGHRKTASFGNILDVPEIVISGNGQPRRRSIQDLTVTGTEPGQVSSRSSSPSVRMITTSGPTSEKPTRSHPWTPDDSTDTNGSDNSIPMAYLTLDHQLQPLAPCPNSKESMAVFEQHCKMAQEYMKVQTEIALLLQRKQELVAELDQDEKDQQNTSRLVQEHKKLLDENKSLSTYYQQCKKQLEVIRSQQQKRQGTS

[4] = biological target: Calcium/calmodulin-dependent protein kinase type II subunit beta (Homo sapiens) (UniProt Q13554); assay: Selectivity interaction (ActivX KiNativ screen (kinase selectivity in THP-1 cell lysates)) EUB0000639a CAMK2B; format: subcellular; conditions: lysate, at 0.04 µM
[5] = biological target: Tyrosine-protein kinase Fes/Fps (Homo sapiens) (UniProt P07332); assay: Selectivity interaction (Kinase panel (Z-LYTE Assay)) EUB0001632a FES; conditions: at 10 µM
[6] = biological target: Cyclin-dependent kinase 17 (Homo sapiens) (UniProt Q00537); conditions: at 10 µM
[7] = biological target: Tyrosine-protein kinase JAK1 (Homo sapiens, UniProt P23458); assay: Selectivity interaction (KinomeScan (DiscoverX)) EUB0000229b JAK1; conditions: at 10 µM
[8] = biological target: Tyrosine-protein kinase CSK (Homo sapiens) (UniProt P41240); assay: Selectivity interaction (ProQinase) EUB0000171b CSK
[9] = test system: T2, Receptor-type tyrosine-protein kinase FLT3 (Homo sapiens), P36888 [D835Y]; assay: Selectivity interaction (SelectScreen profiling (Invitrogen)) EUB0000607a FLT3; conditions: at 2 µM
T2 sequence (whole entry): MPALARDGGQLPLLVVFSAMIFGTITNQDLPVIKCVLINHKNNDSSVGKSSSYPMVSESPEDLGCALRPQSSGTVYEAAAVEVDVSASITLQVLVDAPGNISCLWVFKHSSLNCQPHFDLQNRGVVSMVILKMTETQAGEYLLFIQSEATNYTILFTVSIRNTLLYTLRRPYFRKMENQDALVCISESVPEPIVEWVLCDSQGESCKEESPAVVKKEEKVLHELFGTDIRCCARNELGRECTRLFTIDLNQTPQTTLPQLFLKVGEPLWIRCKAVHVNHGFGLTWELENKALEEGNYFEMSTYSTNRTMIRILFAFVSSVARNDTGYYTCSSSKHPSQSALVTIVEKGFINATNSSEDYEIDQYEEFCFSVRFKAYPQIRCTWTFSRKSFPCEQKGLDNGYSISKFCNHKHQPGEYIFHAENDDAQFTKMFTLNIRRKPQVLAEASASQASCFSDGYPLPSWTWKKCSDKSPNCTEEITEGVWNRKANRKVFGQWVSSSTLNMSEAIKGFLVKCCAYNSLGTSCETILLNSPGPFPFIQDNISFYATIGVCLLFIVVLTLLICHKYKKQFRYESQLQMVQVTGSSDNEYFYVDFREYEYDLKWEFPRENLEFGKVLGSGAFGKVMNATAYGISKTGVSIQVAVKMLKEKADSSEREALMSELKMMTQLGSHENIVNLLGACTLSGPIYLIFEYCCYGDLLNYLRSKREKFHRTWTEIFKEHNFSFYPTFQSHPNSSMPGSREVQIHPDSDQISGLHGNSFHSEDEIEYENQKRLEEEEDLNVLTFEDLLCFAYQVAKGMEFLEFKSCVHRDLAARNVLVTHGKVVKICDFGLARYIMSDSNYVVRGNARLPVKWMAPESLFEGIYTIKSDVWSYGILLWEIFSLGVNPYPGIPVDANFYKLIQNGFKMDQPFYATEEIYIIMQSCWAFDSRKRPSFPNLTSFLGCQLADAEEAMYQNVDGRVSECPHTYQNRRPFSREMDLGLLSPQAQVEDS

[10] = biological target: Interleukin-1 receptor-associated kinase 1 (Homo sapiens) (UniProt P51617); assay: Selectivity interaction (Kinase panel (KiNativ target engagement assay in Jurkat cells)) EUB0001635a IRAK1; format: cell-based; conditions: Selectivity number of off-targets 0.0, Selectivity number of targets 233.0, Source Knowledge https://www.sciencedirect.com/science/article/pii/S2451945619300674?via%3Dihub, at 1 µM
Interleukin-1 receptor-associated kinase 1 (Homo sapiens), sequence (P51617 whole entry, looked up): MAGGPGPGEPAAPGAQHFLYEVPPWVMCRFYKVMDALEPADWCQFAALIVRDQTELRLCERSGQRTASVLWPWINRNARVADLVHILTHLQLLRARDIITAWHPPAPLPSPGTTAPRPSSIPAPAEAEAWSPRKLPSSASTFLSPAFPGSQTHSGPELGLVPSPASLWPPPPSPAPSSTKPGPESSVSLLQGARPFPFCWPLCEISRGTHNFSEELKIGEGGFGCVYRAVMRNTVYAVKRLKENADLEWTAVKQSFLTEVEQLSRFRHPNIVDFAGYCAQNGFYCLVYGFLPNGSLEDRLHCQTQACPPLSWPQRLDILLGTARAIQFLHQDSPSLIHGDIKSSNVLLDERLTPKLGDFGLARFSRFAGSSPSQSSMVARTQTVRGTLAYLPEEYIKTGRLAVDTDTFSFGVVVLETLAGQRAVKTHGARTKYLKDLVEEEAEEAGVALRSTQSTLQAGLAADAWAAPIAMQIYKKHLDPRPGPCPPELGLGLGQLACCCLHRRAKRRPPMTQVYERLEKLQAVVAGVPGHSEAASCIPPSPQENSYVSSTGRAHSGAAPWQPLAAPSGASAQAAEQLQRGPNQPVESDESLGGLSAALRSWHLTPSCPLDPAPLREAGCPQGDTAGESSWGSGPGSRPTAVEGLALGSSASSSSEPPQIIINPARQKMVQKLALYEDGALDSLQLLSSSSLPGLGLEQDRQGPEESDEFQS

Tyrosine-protein kinase CSK (Homo sapiens), sequence (P41240 2-450 limits assumed): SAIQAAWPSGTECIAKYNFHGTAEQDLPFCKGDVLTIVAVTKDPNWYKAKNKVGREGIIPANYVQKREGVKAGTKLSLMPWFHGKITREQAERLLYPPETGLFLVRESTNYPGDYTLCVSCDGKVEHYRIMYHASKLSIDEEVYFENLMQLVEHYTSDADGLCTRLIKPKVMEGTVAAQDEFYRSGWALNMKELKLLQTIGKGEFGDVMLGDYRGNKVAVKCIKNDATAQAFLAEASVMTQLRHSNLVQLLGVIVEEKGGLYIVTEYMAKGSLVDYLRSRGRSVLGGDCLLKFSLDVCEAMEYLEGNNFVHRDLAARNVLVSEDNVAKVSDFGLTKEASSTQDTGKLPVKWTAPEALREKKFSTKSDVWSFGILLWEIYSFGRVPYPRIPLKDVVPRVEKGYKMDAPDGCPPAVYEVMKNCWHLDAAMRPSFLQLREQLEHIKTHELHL
Calcium/calmodulin-dependent protein kinase kinase 1 (Homo sapiens), sequence (Q8N5S9 whole entry, looked up): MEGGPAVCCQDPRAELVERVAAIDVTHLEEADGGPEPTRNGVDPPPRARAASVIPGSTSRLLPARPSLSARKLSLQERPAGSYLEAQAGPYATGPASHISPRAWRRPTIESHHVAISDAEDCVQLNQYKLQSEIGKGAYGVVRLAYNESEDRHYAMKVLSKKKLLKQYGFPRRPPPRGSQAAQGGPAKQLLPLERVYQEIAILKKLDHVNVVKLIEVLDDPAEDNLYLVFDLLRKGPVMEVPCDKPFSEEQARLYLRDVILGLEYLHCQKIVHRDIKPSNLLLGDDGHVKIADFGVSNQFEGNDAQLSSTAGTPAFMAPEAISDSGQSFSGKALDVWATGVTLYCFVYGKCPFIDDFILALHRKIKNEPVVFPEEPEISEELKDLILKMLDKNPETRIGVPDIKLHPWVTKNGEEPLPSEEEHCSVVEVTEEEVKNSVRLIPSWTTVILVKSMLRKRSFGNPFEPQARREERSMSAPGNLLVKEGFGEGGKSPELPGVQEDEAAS
Tyrosine-protein kinase JAK1, sequence (P23458 whole entry): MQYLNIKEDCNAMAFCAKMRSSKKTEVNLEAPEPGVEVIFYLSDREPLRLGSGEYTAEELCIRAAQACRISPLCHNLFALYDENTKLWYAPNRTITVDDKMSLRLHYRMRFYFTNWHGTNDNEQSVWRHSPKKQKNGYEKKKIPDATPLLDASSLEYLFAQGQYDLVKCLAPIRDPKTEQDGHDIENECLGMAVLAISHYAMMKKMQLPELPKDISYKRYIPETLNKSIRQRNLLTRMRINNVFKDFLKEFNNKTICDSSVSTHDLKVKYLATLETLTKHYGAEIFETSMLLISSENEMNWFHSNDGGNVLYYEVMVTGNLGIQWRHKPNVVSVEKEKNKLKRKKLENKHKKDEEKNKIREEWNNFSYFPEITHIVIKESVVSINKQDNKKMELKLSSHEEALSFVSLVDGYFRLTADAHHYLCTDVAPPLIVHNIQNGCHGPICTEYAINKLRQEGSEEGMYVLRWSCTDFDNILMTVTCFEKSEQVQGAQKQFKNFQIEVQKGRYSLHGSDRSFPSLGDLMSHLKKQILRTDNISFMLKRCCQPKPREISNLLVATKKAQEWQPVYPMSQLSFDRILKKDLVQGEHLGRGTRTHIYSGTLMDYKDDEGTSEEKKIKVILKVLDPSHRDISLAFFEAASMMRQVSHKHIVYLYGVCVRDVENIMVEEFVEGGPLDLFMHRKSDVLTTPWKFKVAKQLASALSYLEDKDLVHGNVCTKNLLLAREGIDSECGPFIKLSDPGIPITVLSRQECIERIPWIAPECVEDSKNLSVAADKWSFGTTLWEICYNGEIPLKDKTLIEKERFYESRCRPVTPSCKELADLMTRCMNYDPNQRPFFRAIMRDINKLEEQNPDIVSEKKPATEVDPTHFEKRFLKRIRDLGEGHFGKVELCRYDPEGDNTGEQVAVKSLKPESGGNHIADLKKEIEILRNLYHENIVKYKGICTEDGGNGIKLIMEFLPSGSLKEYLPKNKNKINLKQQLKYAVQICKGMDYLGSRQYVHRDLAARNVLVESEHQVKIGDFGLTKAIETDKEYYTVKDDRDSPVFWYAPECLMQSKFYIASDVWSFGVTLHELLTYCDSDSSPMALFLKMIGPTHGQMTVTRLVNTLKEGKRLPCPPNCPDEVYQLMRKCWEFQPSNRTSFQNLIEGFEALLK
Calcium/calmodulin-dependent protein kinase type II subunit beta (Homo sapiens), sequence (Q13554 whole entry): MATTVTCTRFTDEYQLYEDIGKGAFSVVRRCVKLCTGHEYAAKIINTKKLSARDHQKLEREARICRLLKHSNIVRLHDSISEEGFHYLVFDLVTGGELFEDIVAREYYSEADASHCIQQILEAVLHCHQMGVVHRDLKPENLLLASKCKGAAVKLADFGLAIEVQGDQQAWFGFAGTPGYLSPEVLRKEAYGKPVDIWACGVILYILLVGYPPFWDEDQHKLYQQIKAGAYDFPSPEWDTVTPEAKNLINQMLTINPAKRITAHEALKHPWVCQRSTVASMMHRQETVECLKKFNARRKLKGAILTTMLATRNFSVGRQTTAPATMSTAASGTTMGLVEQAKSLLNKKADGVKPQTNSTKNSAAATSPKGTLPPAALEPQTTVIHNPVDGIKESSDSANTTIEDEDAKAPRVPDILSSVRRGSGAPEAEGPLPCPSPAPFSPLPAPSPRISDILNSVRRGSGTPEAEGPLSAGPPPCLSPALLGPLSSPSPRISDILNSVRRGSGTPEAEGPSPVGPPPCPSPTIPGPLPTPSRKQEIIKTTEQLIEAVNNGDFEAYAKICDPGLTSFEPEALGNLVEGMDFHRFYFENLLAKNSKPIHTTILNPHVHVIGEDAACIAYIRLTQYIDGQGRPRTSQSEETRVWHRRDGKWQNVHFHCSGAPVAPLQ
Cyclin-dependent kinase 17 (Homo sapiens), sequence (Q00537 whole entry, looked up): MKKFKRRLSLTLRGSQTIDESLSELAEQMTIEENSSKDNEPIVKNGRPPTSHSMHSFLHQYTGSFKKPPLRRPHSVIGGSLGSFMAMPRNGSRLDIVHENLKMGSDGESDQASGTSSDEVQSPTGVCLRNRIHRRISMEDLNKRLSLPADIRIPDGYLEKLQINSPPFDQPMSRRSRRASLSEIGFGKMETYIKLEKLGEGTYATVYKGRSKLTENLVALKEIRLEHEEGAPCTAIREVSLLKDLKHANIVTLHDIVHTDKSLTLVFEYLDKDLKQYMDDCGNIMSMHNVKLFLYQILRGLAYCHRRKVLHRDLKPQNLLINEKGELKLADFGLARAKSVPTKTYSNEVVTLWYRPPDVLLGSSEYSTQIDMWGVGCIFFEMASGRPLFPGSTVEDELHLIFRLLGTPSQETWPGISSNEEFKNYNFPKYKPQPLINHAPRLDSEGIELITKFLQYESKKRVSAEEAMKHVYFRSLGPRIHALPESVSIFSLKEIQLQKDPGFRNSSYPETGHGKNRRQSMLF
Tyrosine-protein kinase Fes/Fps (Homo sapiens), sequence (P07332 whole entry): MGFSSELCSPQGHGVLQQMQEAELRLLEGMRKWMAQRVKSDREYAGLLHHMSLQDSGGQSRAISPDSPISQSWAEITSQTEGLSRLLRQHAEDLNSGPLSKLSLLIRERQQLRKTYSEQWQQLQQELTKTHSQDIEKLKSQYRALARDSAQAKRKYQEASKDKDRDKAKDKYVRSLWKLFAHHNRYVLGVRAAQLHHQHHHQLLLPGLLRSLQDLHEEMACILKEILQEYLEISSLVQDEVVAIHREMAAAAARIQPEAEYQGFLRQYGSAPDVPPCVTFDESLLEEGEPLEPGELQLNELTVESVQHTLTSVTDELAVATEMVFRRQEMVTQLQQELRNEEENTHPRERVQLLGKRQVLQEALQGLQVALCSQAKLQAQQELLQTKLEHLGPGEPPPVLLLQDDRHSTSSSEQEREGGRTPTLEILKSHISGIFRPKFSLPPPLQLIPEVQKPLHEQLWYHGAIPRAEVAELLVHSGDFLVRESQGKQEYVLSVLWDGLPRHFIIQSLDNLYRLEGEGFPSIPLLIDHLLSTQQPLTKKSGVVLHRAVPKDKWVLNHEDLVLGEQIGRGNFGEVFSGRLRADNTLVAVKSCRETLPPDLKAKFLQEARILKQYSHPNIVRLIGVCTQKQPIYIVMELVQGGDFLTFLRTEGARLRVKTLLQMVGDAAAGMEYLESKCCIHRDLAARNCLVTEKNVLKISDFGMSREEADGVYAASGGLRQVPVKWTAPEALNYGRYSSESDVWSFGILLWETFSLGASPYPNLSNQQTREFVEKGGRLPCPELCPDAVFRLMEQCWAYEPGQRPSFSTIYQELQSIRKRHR

Compound: COc1cc(Nc2nc(C)cc(-c3cnn4nc(OC)ccc34)n2)cc(C(F)(F)F)c1
- % of control [1]: 95%

- % of inhibition ([2]; at 0.01 µM): 1.9%
- % of inhibition ([2]; at 0.04 µM): -4%
- % of inhibition ([2]; at 0.2 µM): 12.3%
- % of inhibition ([2]; at 1 µM): -8.5%
- % of inhibition ([2]; at 5 µM): 6.3%
- % of inhibition ([3]; at 0.01 µM): 6.8%
- % of inhibition ([3]; at 0.04 µM): 3.8%
- % of inhibition ([3]; at 0.2 µM): -2.9%
- % of inhibition ([3]; at 1 µM): -3.1%
- % of inhibition ([3]; at 5 µM): -8.6%
- % of inhibition [4]: 12.8%
Compound: CC[C@@H]1[C@H](F)C(=O)N[C@@H]1COc1nccc2cc(C(N)=O)c(OC)cc12 [ZIMLOVISERTIB]

- % of control [5]: 3.47%
Compound: Cn1cc(-n2cnc3c(NCc4nc5cc(Cl)c(Cl)cc5[nH]4)nc(N4CCOCC4)nc32)cn1

- % of control [6]: 100%
Compound: CCN(CC)CCCCNc1ncc2cc(-c3cc(OC)cc(OC)c3)c(NC(=O)NC(C)(C)C)nc2n1

Compound: COc1cc(N(C)c2ccnc3ccc(C(F)(F)F)cc23)cc(OC)c1OC
- % binding [7]: 82%

- % of control ([8]; at 1 µM): 87%
- % of control ([8]; at 5 µM): 81%
Compound: C=CC(=O)Nc1cccc(C(=O)Nc2ccc(Nc3cc(-c4[nH]c(SC)nc4C)ccn3)cc2)c1

Compound: CNC(=O)Nc1ccc(-c2nc(N3CC4CCC(C3)O4)c3cnn(C4CCC5(CC4)OCCO5)c3n2)cc1
- % of inhibition [9]: 7%

Compound: C=CC(=O)Nc1ccc(C(=O)Nc2[nH]nc3c2CN(C(=O)N[C@H](CN(C)C)c2ccccc2)C3(C)C)cc1
- % of engagement [10]: 1.3%
